In patent publication US12202790B2, “Sulfonamide derivatives having selective Nox inhibiting activity” (GLUCOX BIOTECH AB, priority 2018, dated 2025):

Columns and labels:
Nox1 = Nox1 (Homo sapiens (Human), UniProt Q9Y5S8); test: Amplex Red assay of Nox1 expressing CHO cells; assay type: cell-based; set-up: key to IC50 Nox1: The sign “—” stands for “inactive”
Method: (§1) HEK293 overexpressing Nox4 (CJ Nox4) cells were purchased from Redoxis, Lund, Sweden. HEK 293 cells expressing Nox5, Nox3 (HEK TRex) and CHO cells expressing Nox1, were a kind gift from Vincent Jaque Center Medical Universitaire, Geneva, Switzerland. Nox2 expressed in isolated neutrophils were isolated from whole blood (human), as previously described (Anvari E, et al., Free Radic Res 2015; 49:1308-1318).
CHO cells expressing Nox1 were cultured in DMEM 12 medium (DMEM/F12) supplemented with FBS (10%), penicillin (100 U/ml) and streptomycin (100 μg/ml) at 37° C. in air with 5% CO2.
(§2) Reactive oxygen produced in whole cells or in membrane preparation of Nox1, Nox3, Nox4, Nox5 and xanthine oxidase and glucose oxidase were determined using Amplex Red as detection probe of formed H2O2. Amplex Red (10-acetyl-3,7-dihydroxyphenoxazine) in combination with HRP and co-factors reacts with H2O2 in a 1:1 stoichiometry to form a highly fluorescent resorufin excitated at 544 nm producing emission at 590 nm.
(§3) Adherent cells (CHO, HEK) were collected by trypsinization, centrifuged, washed with HBSS, counted, and resuspended in HBSS. Cells were seeded in 96-well black flat bottom plates at a density of 50,000-100,000 cells/well. All compounds were dissolved in DMSO and concentrations ranging from 0.003 to 200 μM were tested in Nox cellular assays with a final concentration of DMSO of 1%. Cells were incubated at 37° C. with the compounds for 30 minutes before measurement. Cells expressing Nox1 and Nox2 were activated with the PKC activator PMA (0.1 μM). Nox5 was activated with the Ca2+ ionophore ionomycin (1 μM) and further enforced with PMA. The CJ HEK 293 cells overexpressed Nox4 constitutively. In the HTS screen HEK 293 TRex was used and tetracycline ([…]) was added 18 h before measurement to induce Nox4 expression. Production of hydrogen peroxide by Nox in intact cells was measured using Amplex Red fluorescence as described by Jaquet V, et al., Br J Pharmacol 2011; 164:507-520. Assay reagents including HRP ([…]) and Amplex Red (50 μM) were added to initiate production of hydrogen peroxide. Fluorescence was read in a fluorescence plate reader at 37° C. every minute between 30-60 minutes.

Nox5 = Nox5 (Homo sapiens (Human), UniProt Q96PH1); test: Amplex Red assay of Nox5 expressing HEK cells; assay type: cell-based; set-up: key: The sign “—” stands for “inactive”
Source text: as §1
HEK293T cells expressing tetracycline-inducible human (Nox3 or Nox4) and HEK293 cells stably expressing human Nox5 were generated as described previously (Serrander et al., 2007a,b). HEK cells were cultured in Dulbecco's modified Eagle medium (DMEM) with 4.5 g/l glucose, supplemented with FBS (10%), penicillin (100 U/ml) and streptomycin […] at 37° C. in air with 5% CO2.
as §2, §3

DPPH redox assay = test: DPPH redox assay; set-up: key: The sign “—” stands for “inactive”; conditions: redox activity control
Method: DPPH, a well-known sensitive chemical of monitoring reactions involving radicals described by Xiong Q, et al., Biol Pharm Bull 1996; 19:1580-1585, was used as control to exclude any redox active compound. DPPH was incubated with decreasing concentrations (200-0.003 μM) of compounds of the invention or prior art compound GKT136901 (as a positive control). The plate was kept in the dark for 60 min, after which the absorbance of the solution was measured at 518 nm.

[1] = Determination of chemical stability; assay type: physicochemical
Method: Test compound was pipetted into an HPLC vial, from 10 mM DMSO, to yield 2 μM final concentration in three separate vials containing buffers with different pH. At reaction start the three different buffers were mixed with isopropanol (1:2, buffer:isopropanol). The buffers used were: pH 2 (H3PO4/KH2PO4 10 mM), pH 7.4 (KH2PO4/K2HPO4 10 mM) and pH 10 (Glycine/NaOH 10 mM). Immediately (<1 minute) after buffer or buffer/isopropanol addition, a 100 μl aliquot was added to a separate plate containing 100 μl acetonitrile:H2O (60:40) and Warfarin (internal standard, IS), sealed and frozen at −20° C. This test was made for 2 h and 20 h. Analysis was performed on a XEVO TQ mass spectrometer coupled to an Acquity UPLC system in ESI^+MRM mode, separation on a BEH C18 2×50 mm column.

[2] = Plasma protein binding, mouse; assay type: in vitro ADME; conditions: 10 μM in plasma, equilibrium dialysis 4 h, read-out: fu % mouse plasma protein
Method: Example compounds were incubated at 10 μM in plasma and then equilibrium dialysed for 4 h, using a rapid equilibrium device. Protein binding (fu %) was determined by LS/MS as previously described (Anvari E, et al., vide supra).

[3] = test system: human brain micro-vascular endothelial cells; test: In vitro stroke model: endothelial cells subjected to hypoxia and glucose deprivation; assay type: cell-based; conditions: hypoxia and glucose deprivation 5 h (Example 44: 6 h), viability after 24 hours of culture
Method: (§4) FIG. 1 is a bar chart showing cell viability as a ratio of basal cell viability of human brain microvascular endothelial cells subjected to hypoxia and starvation (OGD: oxygen and glucose deprivation) for 5 h and then cultured for 24 h in the absence or presence of Example 11 at a concentration of 2, 10 or 20 μM. Basal=no hypoxia or starvation, cells cultured in the presence of culture medium only. OGD=5 h of hypoxia or starvation, cells cultured in the presence of culture medium only.
as §4, with “2” for “1”, “(OGD)” for “(OGD: oxygen and glucose deprivation)”, “17” for “11”, “0.3, 3 or” for “2,”, “10” for “10 or 20”
FIG. 3 is a bar chart showing cell viability as a ratio of basal cell viability of human brain microvascular endothelial cells subjected to hypoxia and starvation (OGD: oxygen and glucose deprivation) for 6 h and then cultured for 24 h in the absence or presence of Example 44 at a concentration of from 0.6 to 9.6 μM. Basal=no hypoxia or starvation, cells cultured in the presence of culture medium only. OGD=6 h of hypoxia or starvation, cells cultured in the presence of culture medium only (*p<0.05, ***p<0.001).
Hippocampal brain slices and human brain micro-vascular endothelial cells were subjected to hypoxia and glucose deprivation (starvation) for 5 hours and were tested for viability after 24 hours of culture in the presence of Example 11 or Example 17 at different concentrations. Additionally, human brain micro-vascular endothelial cells were subjected to hypoxia and glucose deprivation (starvation) for 6 hours and were tested for viability after 24 hours of culture in the presence of Example 44 at various concentrations.

Chain of Nox1 (Q9Y5S8 whole entry): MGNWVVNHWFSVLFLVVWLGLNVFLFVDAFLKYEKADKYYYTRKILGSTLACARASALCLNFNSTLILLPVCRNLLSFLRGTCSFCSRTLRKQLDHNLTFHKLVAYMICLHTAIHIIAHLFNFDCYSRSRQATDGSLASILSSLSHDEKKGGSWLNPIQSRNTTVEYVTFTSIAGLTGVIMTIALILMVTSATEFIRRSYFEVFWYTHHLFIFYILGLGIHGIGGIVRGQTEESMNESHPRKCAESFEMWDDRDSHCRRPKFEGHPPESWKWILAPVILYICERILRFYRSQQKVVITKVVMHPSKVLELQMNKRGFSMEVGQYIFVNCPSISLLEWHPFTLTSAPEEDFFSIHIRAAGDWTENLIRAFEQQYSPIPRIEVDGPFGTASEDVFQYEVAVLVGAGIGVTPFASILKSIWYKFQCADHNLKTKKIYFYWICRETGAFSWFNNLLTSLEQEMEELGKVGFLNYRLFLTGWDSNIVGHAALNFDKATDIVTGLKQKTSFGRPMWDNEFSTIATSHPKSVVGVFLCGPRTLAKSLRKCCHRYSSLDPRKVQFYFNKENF
Chain of Nox1 (P13498 2-195 partner): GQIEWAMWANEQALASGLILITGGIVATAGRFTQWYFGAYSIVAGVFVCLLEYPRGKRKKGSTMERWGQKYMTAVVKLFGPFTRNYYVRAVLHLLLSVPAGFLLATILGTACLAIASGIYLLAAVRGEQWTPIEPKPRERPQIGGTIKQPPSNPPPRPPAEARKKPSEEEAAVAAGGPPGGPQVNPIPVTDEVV
Chain of Nox5 (Q96PH1 whole entry): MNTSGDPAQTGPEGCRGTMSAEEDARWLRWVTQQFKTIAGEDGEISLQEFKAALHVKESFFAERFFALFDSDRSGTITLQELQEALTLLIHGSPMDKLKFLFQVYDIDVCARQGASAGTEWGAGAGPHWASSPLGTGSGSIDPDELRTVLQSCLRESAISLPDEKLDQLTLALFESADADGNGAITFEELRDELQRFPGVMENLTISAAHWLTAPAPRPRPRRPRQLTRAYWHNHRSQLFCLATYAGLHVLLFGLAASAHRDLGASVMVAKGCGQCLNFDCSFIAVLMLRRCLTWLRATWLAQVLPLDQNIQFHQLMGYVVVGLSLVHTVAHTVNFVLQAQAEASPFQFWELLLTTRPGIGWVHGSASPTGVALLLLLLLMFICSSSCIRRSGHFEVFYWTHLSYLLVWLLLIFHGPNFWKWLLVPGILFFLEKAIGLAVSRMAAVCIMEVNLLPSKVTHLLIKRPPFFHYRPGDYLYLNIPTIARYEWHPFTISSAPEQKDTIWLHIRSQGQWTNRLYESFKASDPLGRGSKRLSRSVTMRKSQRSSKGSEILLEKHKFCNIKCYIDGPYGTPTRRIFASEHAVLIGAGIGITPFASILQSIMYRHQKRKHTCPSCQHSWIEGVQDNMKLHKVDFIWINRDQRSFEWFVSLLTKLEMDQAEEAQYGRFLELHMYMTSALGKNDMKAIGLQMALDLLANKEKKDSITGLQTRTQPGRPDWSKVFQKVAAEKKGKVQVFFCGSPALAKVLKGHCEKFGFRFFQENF

| SMILES | IC50 Nox1 (Nox1) | IC50 Nox5 (Nox5) | IC50 DPPH (DPPH redox assay) | Chem. stab. pH 7.4 [1] | fraction unbound at 4 h, 10 μM [2] | neuroprotective effect (cell viability) [3] |
| --- | --- | --- | --- | --- | --- | --- |
| COc1cc(C)c(S(=O)(=O)NCCc2ccccc2O)c(C)c1 [Example 47, N-[2-(2-hydroxyphenyl)ethyl]-4-methoxy-2,6-dimethyl-benzenesulfonamide] | — | — | — | stable | 0.017 |  |
| COc1cc(C)c(S(=O)(=O)NCCc2ccccc2Cl)c(C)c1 [Example 46, N-[2-(2-chlorophenyl)ethyl]-4-methoxy-2,6-dimethyl-benzenesulfonamide] | — | — | — | stable | 0.0021 |  |
| Cc1cc(Cl)c(S(=O)(=O)NCCc2ccccc2O)c(C)c1O [Example 44, 6-chloro-3-hydroxy-N-[2-(2-hydroxyphenyl)ethyl]-2,4-dimethyl-benzenesulfonamide] | — | — | — | stable | 0.025 | neuroprotective effect |
| O=S(=O)(NCCc1ccccc1O)c1c(Cl)cc(Br)cc1Cl [Example 38, 4-bromo-2,6-dichloro-N-[2-(2-hydroxyphenyl)ethyl]benzenesulfonamide] | — | — | — | stable | 0.0056 |  |
| Cc1ccccc1C(F)CNS(=O)(=O)c1c(Cl)cc(Br)cc1Cl (racemic) [Example 35, 4-bromo-2,6-dichloro-N-[2-fluoro-2-(2-methylphenyl)ethyl]benzene-1-sulfonamide] | — | — | — | stable | 0.0002 |  |
| Cc1ccccc1CCNS(=O)(=O)c1c(Cl)cc(Br)cc1Cl [Example 17, 4-bromo-2,6-dichloro-N-[2-(2-methylphenyl)ethyl]benzene-1-sulfonamide] | — | — | — | stable | 0.0004 | neuroprotective effect |
| Cc1cc(C)c(S(=O)(=O)NCCc2ccccc2O)c(C)c1 [Example 37, N-[2-(2-hydroxyphenyl)ethyl]-2,4,6-trimethylbenzene-1-sulfonamide] | — | — | — | stable | 0.0056 |  |
| Cc1cc(O)cc(C)c1S(=O)(=O)NCCc1ccccc1O [Example 48, 4-hydroxy-N-[2-(2-hydroxyphenyl)ethyl]-2,6-dimethyl-benzenesulfonamide] | — | — | — | stable | 0.005 |  |
| O=S(=O)(NCCc1ccccc1Cl)c1c(Cl)cc(C2CC2)cc1Cl [Example 26, 2,6-dichloro-N-[2-(2-chlorophenyl)ethyl]-4-cyclopropylbenzene-1-sulfonamide] | — | — | — |  |  |  |
| Cc1ccccc1CCNS(=O)(=O)c1c(C)cccc1Cl [Example 11, 2-chloro-6-methyl-N-[2-(2-methylphenyl)ethyl]benzene-1-sulfonamide] | — | — | — |  |  | neuroprotective effect |
